This is an account of results in ChEMBL document CHEMBL1151378, “Anticancer indole alkaloids of Rhazya stricta” (1981).

Molecules are shown by their SMILES. ≈ marks a conversion by molar mass, not a printed value.

One assay concerns KB. Nature of the assay: Cytotoxicity against human KB cells. The format is functional. Particulars: read-out: ED50 (the source's name).
For the compound `CCC1CCCN(CCc2c([C@@]3(COC(C)=O)CC[C@@H](COC(C)=O)c4c(CCN5CCCC(CC)C5)c5ccccc5n43)[nH]c3ccccc23)C1` (stereo partly drawn), the EC50 came to 2.4 µg/mL (≈ 3.39 µM).
Same read-out and setting: in the case of `CCC1CCCN(CCc2c([C@H]3CCCc4c(CCN5CCCC(CC)C5)c5ccccc5n43)[nH]c3ccccc23)C1` (stereo partly drawn) it was 0.5 µg/mL (≈ 0.885 µM); in that of `CCC1CCCN(CCc2c([C@@]3(C(=O)OC)CC[C@@H](C(=O)OC)c4c(CCN5CCCC(CC)C5)c5ccccc5n43)[nH]c3ccccc23)C1` (stereo partly drawn) [TETRAHYDROSECAMINE], 0.69 µg/mL (≈ 1.01 µM); in that of `C/C=C(/C=O)[C@@H]1C[C@H]2c3[nH]c4ccccc4c3CCN2C=C1C(=O)OC` [VALLESIACHOTAMINE], 3.56 µg/mL (≈ 10.2 µM).
Turning to `C/C=C1/CN2[C@H]3Cc4c([nH]c5ccccc45)[C@@H]2C[C@@H]1[C@@]3(CO)C(=O)OC` [POLYNEURIDINE], the EC50 is above 100 µg/mL.
Take `CCC1CCCN(CCc2c([C@@]3(CO)CC[C@@H](CO)c4c(CCN5CCCC(CC)C5)c5ccccc5n43)[nH]c3ccccc23)C1` (stereo partly drawn) [TETRAHYDROSECAMINEDIOL]: the EC50 was found to be 0.0038 µg/mL (≈ 0.00608 µM).

The test system of a further assay is P388. Nature of the assay: Cytotoxicity against mouse P388 cells. Particulars: read-out: ED50 (the source's name). The format is functional.
Consider `CCC1CCCN(CCc2c([C@@]3(COC(C)=O)CC[C@@H](COC(C)=O)c4c(CCN5CCCC(CC)C5)c5ccccc5n43)[nH]c3ccccc23)C1` (stereo partly drawn), for which the EC50 is 1.6 µg/mL (≈ 2.26 µM).
Same read-out and setting: for `C/C=C1/CN2CC[C@]34C(=C(C(=O)OC)[C@H]1C[C@H]23)Nc1ccc(O)cc14` [SEWARINE] the value was 2.7 µg/mL (≈ 7.98 µM).
The same measure, in the same setting: for `CCC1CCCN(CCc2c([C@H]3CCCc4c(CCN5CCCC(CC)C5)c5ccccc5n43)[nH]c3ccccc23)C1` (stereo partly drawn) the value was 0.29 µg/mL (≈ 0.513 µM).
On the same count and under the same terms, in the case of `CCC1CCCN(CCc2c([C@@]3(C(=O)OC)CC[C@@H](C(=O)OC)c4c(CCN5CCCC(CC)C5)c5ccccc5n43)[nH]c3ccccc23)C1` (stereo partly drawn) [TETRAHYDROSECAMINE] it was 0.4 µg/mL (≈ 0.587 µM).
As for `C/C=C(/C=O)[C@@H]1C[C@H]2c3[nH]c4ccccc4c3CCN2C=C1C(=O)OC` [VALLESIACHOTAMINE], the EC50 amounted to 1.1 µg/mL (≈ 3.14 µM).
`C/C=C1/CN2[C@H]3Cc4c([nH]c5ccccc45)[C@@H]2C[C@@H]1[C@@]3(CO)C(=O)OC` [POLYNEURIDINE]: the EC50 was above 100 µg/mL.
Still for that read-out and setting: in the case of `CCC1CCCN(CCc2c([C@@]3(CO)CC[C@@H](CO)c4c(CCN5CCCC(CC)C5)c5ccccc5n43)[nH]c3ccccc23)C1` (stereo partly drawn) [TETRAHYDROSECAMINEDIOL] it was 0.33 µg/mL (≈ 0.528 µM).
